# Data: patent US20210187128A1, “COLOR CHANGING SILK PATCH FOR VISIBLE ROS DETECTION” (University of Central Florida Research Foundation, Inc., priority 2019, published 2021)
# What was measured:
# [1] = test system: human skin keratinocyte (HaCat) cells; test: In vitro cellular biocompatibility of Amplex Red by MTT assay; format: cell-based; conditions: for cellular viability: highest concentration of 388 μM, beyond 80% considered biocompatible
# Method: Amplex Red compound was tested for in vitro cellular toxicity analysis against the human skin keratinocyte (HaCat) cells (purchased from ATCC, USA) using cell culture-based MTT assay. Herein, 10,000 cells were grown overnight into a 96 well plate using DMEM:F12 cell culture media. Different concentrations of Amplex red compound were prepared using incomplete cell culture media and incubated with HaCat cells for a time period of 24 hours and 48 hours respectively. Post incubation time period, MTT analysis was performed using the standard protocol described in Singh 2018, herein incorporated by reference into this disclosure in its entirety. (S. (Singh, A. Ly, S. Das, T. S. Sakthivel, S. Barkam and S. Seal, Artif. Cells, Nanomed., Biotechnol., 2018, 1-8). MTT assay compound (Thiazyolyl blue tetrazolium bromide) was then added for measuring the cellular viability, and absorbance was recorded for treated samples in comparison to control samples (HaCat cells only) and data analysis was performed.
# [2] = cited from earlier work
structure (smiles),measurement,setting,value
CC(=O)N1c2ccc(O)cc2Oc2cc(O)ccc21 [Amplex Red],toxicity to the cells,[1],completely non-toxic
same,concentration found to be highly biocompatible,[1]; 24 hours,up to 388 μM
same,cellular viability,[1]; 24 hours,> 80%
same,concentration found to be highly biocompatible,[1]; 48 hours,up to 388 μM
same,cellular viability,[1]; 48 hours,> 80%
same,detection limit for H2O2 in solutions,[2]; in solutions,10 picomolar
same,amount of H2O2 detected (limit of detection),"[2]; with HRP, 100 μL volume",10 picomoles
